Measured values: ChEMBL document CHEMBL1201862, “PubChem BioAssay data set” (2004)
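Grown in 96-well plates, cells were treated for 48 hours with each compound at five concentrations. Insufficient inhibition: endpoint recorded as highest concentration tested. GI50: concentration for 50% inhibition of growth.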 Active and inactive are the calls of the source. Rule as the data show it: active = GI50 up to about 1.1 µM and inactive = higher.

Columns and labels:
Assay in all cases: inhibition of tumour cell growth, NCI panel, 48 h
DMS-273 = system: DMS-273
COLO 205 = system: COLO 205
RXF 631 = system: RXF 631
SNB-75 = system: SNB-75
NCI-H23 = system: NCI-H23
CCRF-CEM = system: CCRF-CEM
NCI-H226 = system: NCI-H226
SNB-19 = system: SNB-19
SNB-78 = system: SNB-78
U-251 = system: U-251
HCC 2998 = system: HCC 2998
HT-29 = system: HT-29
DLD-1 = system: DLD-1
UO-31 = system: UO-31
MOLT-4 = system: MOLT-4
HL-60 = system: HL-60
KM12 = system: KM12
HOP-92 = system: HOP-92
KM-20L2 = system: KM-20L2
HCT-116 = system: HCT-116
SK-MEL-5 = system: SK-MEL-5
K562 = system: K562
SR = system: SR
SF-539 = system: SF-539
M14 = system: M14
ACHN = system: ACHN
Malme-3M = system: Malme-3M
CAKI-1 = system: CAKI-1
EKVX = system: EKVX
A549 = system: A549
XF498 = system: XF498
UACC-62 = system: UACC-62
HCT-15 = system: HCT-15
SF-268 = system: SF-268
OVCAR-8 = system: OVCAR-8
SW-620 = system: SW-620
SK-OV-3 = system: SK-OV-3
NCI-H460 = system: NCI-H460
TK-10 = system: TK-10
OVCAR-5 = system: OVCAR-5
OVCAR-4 = system: OVCAR-4
RPMI-8226 = system: RPMI-8226
IGROV-1 = system: IGROV-1
OVCAR-3 = system: OVCAR-3
HOP-62 = system: HOP-62
SK-MEL-28 = system: SK-MEL-28
SF-295 = system: SF-295
SN12C = system: SN12C
786-0 = system: 786-0
NCI-H522 = system: NCI-H522
SK-MEL-2 = system: SK-MEL-2
RXF 393 = system: RXF 393
DMS-114 = system: DMS-114
LOX IMVI = system: LOX IMVI

Measured: GI50

Cn1cc(C(=O)C2CCCCC2)ccc1=O
> 100 µM: HCT-15
inactive: DMS-273 > 100 µM | COLO 205 > 100 µM | RXF 631 > 100 µM | SNB-75 > 100 µM | NCI-H23 > 100 µM | CCRF-CEM > 100 µM | NCI-H226 > 100 µM | SNB-19 > 100 µM | SNB-78 > 100 µM | U-251 > 100 µM | HCC 2998 > 100 µM | HT-29 > 100 µM | DLD-1 > 100 µM | UO-31 > 100 µM | MOLT-4 > 100 µM | HL-60 > 100 µM | KM12 > 100 µM | HOP-92 > 100 µM | KM-20L2 > 100 µM | HCT-116 > 100 µM | SK-MEL-5 > 100 µM | K562 > 100 µM | SR > 100 µM | SF-539 > 100 µM | M14 > 100 µM | ACHN > 100 µM | Malme-3M > 100 µM | CAKI-1 > 100 µM | EKVX > 100 µM | A549 > 100 µM | XF498 > 100 µM | UACC-62 > 100 µM | SF-268 > 100 µM | OVCAR-8 > 100 µM | SW-620 > 100 µM | SK-OV-3 > 100 µM | NCI-H460 > 100 µM | TK-10 > 100 µM | OVCAR-5 > 100 µM | OVCAR-4 > 100 µM | RPMI-8226 > 100 µM | IGROV-1 > 100 µM | OVCAR-3 > 100 µM | HOP-62 > 100 µM | SK-MEL-28 > 100 µM | SF-295 > 100 µM | SN12C > 100 µM | 786-0 > 100 µM | NCI-H522 > 100 µM | SK-MEL-2 > 100 µM | RXF 393 > 100 µM | DMS-114 > 100 µM | LOX IMVI > 100 µM
